Measurements published in PubChem BioAssay (NCI).
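All cell lines were grown in 96-well plates and treated with compound for 48 hours. At the GI50, growth is halved. TGI: total growth inhibition.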

Experiments:
Experiment in all cases: NCI-60 cell line screen, 48 h
786-0 renal = test system: 786-0 renal
A498 renal = test system: A498 renal
A549 NSCLC = test system: A549 NSCLC
ACHN renal = test system: ACHN renal
BT-549 breast = test system: BT-549 breast
CAKI-1 renal = test system: CAKI-1 renal
CCRF-CEM leukemia = test system: CCRF-CEM leukemia
COLO 205 colon = test system: COLO 205 colon
DU-145 prostate = test system: DU-145 prostate
EKVX NSCLC = test system: EKVX NSCLC
HCC-2998 colon = test system: HCC-2998 colon
HCT-116 colon = test system: HCT-116 colon
HCT-15 colon = test system: HCT-15 colon
HL-60(TB) leukemia = test system: HL-60(TB) leukemia
HOP-62 NSCLC = test system: HOP-62 NSCLC
HOP-92 NSCLC = test system: HOP-92 NSCLC
HS 578T breast = test system: HS 578T breast
HT29 colon = test system: HT29 colon
IGROV1 ovarian = test system: IGROV1 ovarian
K-562 leukemia = test system: K-562 leukemia
KM12 colon = test system: KM12 colon
LOX IMVI melanoma = test system: LOX IMVI melanoma
M14 melanoma = test system: M14 melanoma
MALME-3M melanoma = test system: MALME-3M melanoma
MCF7 breast = test system: MCF7 breast
MDA-MB-231 breast = test system: MDA-MB-231 breast
MDA-MB-435 = test system: MDA-MB-435
MOLT-4 leukemia = test system: MOLT-4 leukemia
NCI-H226 lung = test system: NCI-H226 lung
NCI-H23 lung = test system: NCI-H23 lung
NCI-H460 lung = test system: NCI-H460 lung
NCI-H522 lung = test system: NCI-H522 lung
NCI/ADR-RES ovarian = test system: NCI/ADR-RES ovarian
OVCAR-3 ovarian = test system: OVCAR-3 ovarian
OVCAR-4 ovarian = test system: OVCAR-4 ovarian
OVCAR-5 ovarian = test system: OVCAR-5 ovarian
OVCAR-8 ovarian = test system: OVCAR-8 ovarian
PC-3 prostate = test system: PC-3 prostate
RPMI-8226 leukemia = test system: RPMI-8226 leukemia
RXF 393 renal = test system: RXF 393 renal
SF-268 CNS = test system: SF-268 CNS
SF-295 CNS = test system: SF-295 CNS
SF-539 CNS = test system: SF-539 CNS
SK-MEL-2 melanoma = test system: SK-MEL-2 melanoma
SK-MEL-28 melanoma = test system: SK-MEL-28 melanoma
SK-MEL-5 melanoma = test system: SK-MEL-5 melanoma
SK-OV-3 ovarian = test system: SK-OV-3 ovarian
SN12C renal = test system: SN12C renal
SNB-19 CNS = test system: SNB-19 CNS
SNB-75 CNS = test system: SNB-75 CNS
SR leukemia = test system: SR leukemia
SW-620 colon = test system: SW-620 colon
T-47D breast = test system: T-47D breast
TK-10 renal = test system: TK-10 renal
U251 CNS = test system: U251 CNS
UACC-257 melanoma = test system: UACC-257 melanoma
UACC-62 melanoma = test system: UACC-62 melanoma
UO-31 renal = test system: UO-31 renal

Structure (SMILES): COc1ccc(C(C)=C(c2ccc(OCCN(C)C)cc2)c2ccc(OCCN(C)C)cc2)cc1
- GI50 (786-0 renal): 0.445 µM
- TGI (786-0 renal): 1.1 µM
- GI50 (A498 renal): 1.13 µM
- TGI (A498 renal): 4.15 µM
- GI50 (A549 NSCLC): 1.03 µM
- TGI (A549 NSCLC): 4.48 µM
- GI50 (ACHN renal): 0.763 µM
- TGI (ACHN renal): 2.51 µM
- GI50 (BT-549 breast): 1.85 µM
- TGI (BT-549 breast): 5.24 µM
- GI50 (CAKI-1 renal): 0.647 µM
- TGI (CAKI-1 renal): 2.31 µM
- GI50 (CCRF-CEM leukemia): 0.624 µM
- TGI (CCRF-CEM leukemia): 2.36 µM
- GI50 (COLO 205 colon): 0.432 µM
- TGI (COLO 205 colon): 0.908 µM
- GI50 (DU-145 prostate): 1.81 µM
- TGI (DU-145 prostate): 5.18 µM
- GI50 (EKVX NSCLC): 1.65 µM
- TGI (EKVX NSCLC): 5.25 µM
- GI50 (HCC-2998 colon): 0.858 µM
- TGI (HCC-2998 colon): 3.49 µM
- GI50 (HCT-116 colon): 0.415 µM
- TGI (HCT-116 colon): 2.45 µM
- GI50 (HCT-15 colon): 0.582 µM
- TGI (HCT-15 colon): 2.05 µM
- GI50 (HL-60(TB) leukemia): 0.477 µM
- TGI (HL-60(TB) leukemia): 0.999 µM
- GI50 (HOP-62 NSCLC): 1.36 µM
- TGI (HOP-62 NSCLC): 3.42 µM
- GI50 (HOP-92 NSCLC): 0.633 µM
- TGI (HOP-92 NSCLC): 3.17 µM
- GI50 (HS 578T breast): 0.884 µM
- TGI (HS 578T breast): 4.25 µM
- GI50 (HT29 colon): 0.49 µM
- TGI (HT29 colon): 1.63 µM
- GI50 (IGROV1 ovarian): 1.1 µM
- TGI (IGROV1 ovarian): 3.92 µM
- GI50 (K-562 leukemia): 0.395 µM
- TGI (K-562 leukemia): 0.918 µM
- GI50 (KM12 colon): 1.07 µM
- TGI (KM12 colon): 4.21 µM
- GI50 (LOX IMVI melanoma): 0.343 µM
- TGI (LOX IMVI melanoma): 0.741 µM
- GI50 (M14 melanoma): 0.427 µM
- TGI (M14 melanoma): 0.824 µM
- GI50 (MALME-3M melanoma): 0.439 µM
- TGI (MALME-3M melanoma): 0.893 µM
- GI50 (MCF7 breast): 0.243 µM
- TGI (MCF7 breast): 0.889 µM
- GI50 (MDA-MB-231 breast): 0.684 µM
- TGI (MDA-MB-231 breast): 2.29 µM
- GI50 (MDA-MB-435): 0.507 µM
- TGI (MDA-MB-435): 1.13 µM
- GI50 (MOLT-4 leukemia): 0.544 µM
- TGI (MOLT-4 leukemia): 1.61 µM
- GI50 (NCI-H226 lung): 3.03 µM
- TGI (NCI-H226 lung): 6.89 µM
- GI50 (NCI-H23 lung): 2.95 µM
- TGI (NCI-H23 lung): 6.53 µM
- GI50 (NCI-H460 lung): 0.828 µM
- TGI (NCI-H460 lung): 2.94 µM
- GI50 (NCI-H522 lung): 0.866 µM
- TGI (NCI-H522 lung): 3.62 µM
- GI50 (NCI/ADR-RES ovarian): 1.34 µM
- TGI (NCI/ADR-RES ovarian): 4.68 µM
- GI50 (OVCAR-3 ovarian): 0.585 µM
- TGI (OVCAR-3 ovarian): 1.79 µM
- GI50 (OVCAR-4 ovarian): 0.865 µM
- TGI (OVCAR-4 ovarian): 3.25 µM
- GI50 (OVCAR-5 ovarian): 1.72 µM
- TGI (OVCAR-5 ovarian): 5.01 µM
- GI50 (OVCAR-8 ovarian): 1.17 µM
- TGI (OVCAR-8 ovarian): 4.54 µM
- GI50 (PC-3 prostate): 1.36 µM
- TGI (PC-3 prostate): 4.81 µM
- GI50 (RPMI-8226 leukemia): 0.584 µM
- TGI (RPMI-8226 leukemia): 1.51 µM
- GI50 (RXF 393 renal): 0.381 µM
- TGI (RXF 393 renal): 0.934 µM
- GI50 (SF-268 CNS): 1.11 µM
- TGI (SF-268 CNS): 4.35 µM
- GI50 (SF-295 CNS): 0.51 µM
- TGI (SF-295 CNS): 1.18 µM
- GI50 (SF-539 CNS): 0.468 µM
- TGI (SF-539 CNS): 0.948 µM
- GI50 (SK-MEL-2 melanoma): 0.588 µM
- TGI (SK-MEL-2 melanoma): 1.39 µM
- GI50 (SK-MEL-28 melanoma): 0.464 µM
- TGI (SK-MEL-28 melanoma): 0.904 µM
- GI50 (SK-MEL-5 melanoma): 0.432 µM
- TGI (SK-MEL-5 melanoma): 0.794 µM
- GI50 (SK-OV-3 ovarian): 3.91 µM
- TGI (SK-OV-3 ovarian): 7.51 µM
- GI50 (SN12C renal): 2 µM
- TGI (SN12C renal): 6.09 µM
- GI50 (SNB-19 CNS): 1.33 µM
- TGI (SNB-19 CNS): 4.86 µM
- GI50 (SNB-75 CNS): 2.28 µM
- TGI (SNB-75 CNS): 5.95 µM
- GI50 (SR leukemia): 0.321 µM
- TGI (SR leukemia): 0.941 µM
- GI50 (SW-620 colon): 0.639 µM
- TGI (SW-620 colon): 2.22 µM
- GI50 (T-47D breast): 0.374 µM
- TGI (T-47D breast): 0.966 µM
- GI50 (TK-10 renal): 3.31 µM
- TGI (TK-10 renal): 6.86 µM
- GI50 (U251 CNS): 0.679 µM
- TGI (U251 CNS): 2.61 µM
- GI50 (UACC-257 melanoma): 0.469 µM
- TGI (UACC-257 melanoma): 0.957 µM
- GI50 (UACC-62 melanoma): 0.533 µM
- TGI (UACC-62 melanoma): 1.25 µM
- GI50 (UO-31 renal): 0.804 µM
- TGI (UO-31 renal): 2.11 µM
